From ChEMBL document CHEMBL1145982, “Novel dihydrofolate reductase inhibitors. Structure-based versus diversity-based library design and high-throughput synthesis and screening” (J Med Chem, 2003)
pIC50: −log10 of the molar value. Values after ≈ are worked out from the molar mass of the structure shown.

Experiments:
Homo sapiens = organism: Homo sapiens; test: Selectivity ratio against human and […] ATCC 49619 dihydrofolate reductase
Dihydrofolate reductase [1] = target: T1, Dihydrofolate reductase (Staphylococcus aureus, UniProt P0A017); test: Inhibitory activity against TMP-Resistance Dihydrofolate reductase from Staphylococcus aureus 157/4696
Dihydrofolate reductase [2] = target: T1, Dihydrofolate reductase; test: Inhibitory activity of TMP-Resistance DHFR against Staphylococcus aureus 157/4696
Dihydrofolate reductase [3] = target: T1, Dihydrofolate reductase; test: Tested for inhibition of TMP-Resistant Dihydrofolate reductase from Staphylococcus aureus 157/4696.
[4] = target: T2, Dihydrofolate reductase (Homo sapiens) (UniProt P00374); conditions: Staphylococcus; ATCC 49619
T2 sequence (whole entry): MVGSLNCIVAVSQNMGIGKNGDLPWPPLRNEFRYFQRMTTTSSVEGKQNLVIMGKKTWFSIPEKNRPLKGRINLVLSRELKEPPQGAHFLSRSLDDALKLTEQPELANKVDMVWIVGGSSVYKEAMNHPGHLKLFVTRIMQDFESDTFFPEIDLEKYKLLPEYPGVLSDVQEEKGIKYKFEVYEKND
Description: Antibacterial activity of TMP-susceptible DHFR against Staphylococcus pneumoniae ATCC 49619

[5] = target: T2, Dihydrofolate reductase (Homo sapiens); conditions: Staphylococcus
Description: Antibacterial activity against TMP-Resistant Dihydrofolate reductase from Staphylococcus aureus 157/4696

[6] = target: Dihydrofolate reductase (Staphylococcus aureus) (UniProt P0A017)
Description: Tested for inhibition of TMP-Resistant Dihydrofolate reductase from Staphylococcus pneumoniae 1/1.

[7] = target: T2, Dihydrofolate reductase (Homo sapiens); conditions: Staphylococcus; ATCC 49619; remark: listed apart in the source
Description: Antibacterial activity against TMP-susceptible DHFR from Staphylococcus pneumoniae ATCC 49619

[8] = target: T2, Dihydrofolate reductase (Homo sapiens); conditions: Staphylococcus; remark: listed apart in the source
Description: Inhibitory activity of TMP-Resistance Dihydrofolate reductase against Staphylococcus aureus 157/4696

T1 sequence (P0A017 2-159 limits assumed): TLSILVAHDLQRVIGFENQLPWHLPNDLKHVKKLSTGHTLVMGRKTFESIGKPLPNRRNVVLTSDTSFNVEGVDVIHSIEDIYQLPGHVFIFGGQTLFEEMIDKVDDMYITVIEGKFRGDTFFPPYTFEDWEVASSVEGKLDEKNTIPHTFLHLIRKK
Dihydrofolate reductase (Staphylococcus aureus), sequence (P0A017 2-159 limits assumed): as above

SMILES | Ratio (Homo sapiens) | pIC50 (Dihydrofolate reductase [1]) | also measured
COc1cc2c(cc1OC)C(C)N(Cc1cnc(N)nc1N)CC2 (centres undefined) | 15 |  | 
COc1cc2c(cc1OC)C(c1ccc(Cl)cc1Cl)CN(Cc1cnc(N)nc1N)C2 (centres undefined) | 243 | 5.70 | 
COc1cc2c(cc1OC)CN(Cc1cnc(N)nc1N)CC2 |  |  | pIC50 (Dihydrofolate reductase [2]): 4.52; pIC50 (Dihydrofolate reductase [3]): < 4.00; MIC [4]: 0.5 µg/mL (≈ 1.59 µM); MIC [5]: 4 µg/mL (≈ 12.7 µM); MIC [6]: > 32 µg/mL; MIC [7]: 0.5 µg/mL (≈ 1.59 µM); MIC [8]: 4 µg/mL (≈ 12.7 µM)
COc1ccc2c(c1)CN(Cc1cnc(N)nc1N)CC2c1cccc([N+](=O)[O-])c1 (centres undefined) | 16700 |  | 
COc1cc2c(c3c1OCO3)[C@H](C)N(Cc1cnc(N)nc1N)CC2 |  | 5.27 | 
COc1cc2c(c3c1OCO3)[C@@H](C)N(Cc1cnc(N)nc1N)CC2 |  | 5.89 | 
CSc1c2n(c3cc(Cl)ccc13)CCN(Cc1cnc(N)nc1N)C2 | 2600 |  | 
Nc1ncc(CN2CCc3c([nH]c4ccccc34)C2)c(N)n1 | 45000 |  | 
CC1c2cc(Cc3ccccc3)c(-c3ccccc3)n2CCN1Cc1cnc(N)nc1N (centres undefined) | 40 |  | 
Nc1ncc(CN2CCc3ccccc3C2)c(N)n1 | > 90 | 4.40 | 
CC1c2ccc3c4ccccc4n(C)c3c2CCN1Cc1cnc(N)nc1N (centres undefined) | 21 |  | 
